Data published in publication PMC5278714, “Safety and Pharmacokinetics of CD101 IV, a Novel Echinocandin, in Healthy Adults” (Antimicrobial Agents and Chemotherapy, 2017).
Like-named read-outs stand apart in the source and are kept apart here. Numbered stars: 1 amine (or outer) side, 2 acyl side, 3 side chain; on linkers, the order of the positions; unused ones are H or OH. Bridge positions count the residues as written; N and C are the ends. Square brackets hold non-standard residues; d marks the D form. Peptide text beside a SMILES is read from it. * marks the point of attachment. Orn(4R-OH,5R-OCH2CH2NMe3+) = C[N+](C)(C)CCO[C@@H](N[*:3])[C@H](O)C[C@H](N[*:1])C(=O)[*:2]; pTerphenylCO(4''-OnC5H11) = CCCCCOc1ccc(-c2ccc(-c3ccc(C(=O)*)cc3)cc2)cc1; hTyr(3S-OH,4S-OH) = N[C@H](C(=O)O)[C@H](O)[C@@H](O)c1ccc(O)cc1; Pro(3S-OH,4S-Me) = C[C@H]1CN[C@H](C(=O)O)[C@H]1O; Hyp = O=C(O)[C@@H]1C[C@@H](O)CN1

Experiments:
Type in all cases: in vivo, humans
healthy adults [1] = assay: Multiple-ascending-dose phase 1 study: safety and tolerability
Description: (§1) The single-ascending-dose and multiple-ascending-dose studies were phase 1, randomized, double-blind, dose-escalation, placebo-controlled, single-center safety trials of CD101 IV in healthy adults (ClinicalTrials.gov identifiers: NCT02516904 for the single-ascending-dose study; NCT02551549 for the multiple-ascending-dose study). In the single-ascending-dose study, 4 cohorts (corresponding to doses of 50, 100, 200, and 400 mg) of 8 subjects (6 active and 2 placebo) received CD101 IV or placebo infused over 60 (±5) min. In the multiple-ascending-dose study, 3 cohorts (cohort 1, 100 mg ×2 doses; cohort 2, 200 mg ×2 doses; cohort 3, 400 mg ×3 doses) of 8 subjects (6 active and 2 placebo) received CD101 IV or placebo (normal saline solution) infused over 60 (±5) min, with doses separated by 7 days.
(§2) All subjects were monitored for AEs throughout the study until 21 days after the last dose of study drug. Electrocardiograms, hematology and serum chemistry evaluations, and UA were performed at screening, on day −1, and at various time points during and for 14 days after the dosing period. Subjects remained in the clinical research unit for observation and safety assessments from day −1 until 7 days after the last dose of study drug. Three additional safety assessments were performed at weekly follow-up visits following the last dose of study drug. The long follow-up period ensured that any delayed safety events were captured, since CD101 has a very long t1/2 and plasma levels are expected to persist for several weeks. Safety was assessed ≥5 days after dosing by study physicians to determine whether it was safe to proceed to the next dose.
(§3) Safety was assessed in the safety analysis population. Safety was evaluated by presenting summaries of AEs, ECGs, clinical laboratory evaluations (hematology evaluation, chemistry panel, and UA), and vital signs. Adverse events were coded using the Medical Dictionary for Regulatory Activities Version 18.0. A TEAE was an AE that occurred during or after study drug administration and up through 21 (±1) days after study drug administration. The incidence of TEAEs was summarized by system organ class and preferred term, by relationship to study drug, and by severity. In addition, the incidence of serious TEAEs and the incidence of TEAEs leading to discontinuation of study drug were summarized by system organ class and preferred term. Descriptive statistics for clinical laboratory test results and vital signs, and for changes from baseline, were summarized by time point. Incidences of potentially clinically significant clinical laboratory results and vital signs were also summarized by time point. The numbers and percentages of abnormal ECGs were summarized by time point.

healthy adults [2] = assay: Single-ascending-dose phase 1 study: safety and tolerability
Description: as §1, §2, §3

[3] = Single-ascending-dose phase 1 study: plasma and urine pharmacokinetics; conditions: for Vd / clearance / half-life / Cmax: plasma, arithmetic mean; for Vd: iv; for Cmax: LC-MS/MS
Description: as §1
(§4) Extensive PK sampling from plasma and urine was performed for all subjects following study drug administration and over the 3 weeks after the last dose of study drug. Plasma and urine samples from subjects who received CD101 IV were analyzed by a bioanalytical laboratory for CD101 concentration using a validated liquid chromatography-tandem mass spectrometry method with a lower limit of quantitation of 10 ng/ml.
(§5) Pharmacokinetics were assessed in the PK analysis population and included Cmax, AUC, Cl, elimination rate constant (λz), and terminal t1/2. Plasma concentration-time profiles were constructed for each subject and dosing cohort. For each plasma concentration-time curve, PK parameters were determined directly from inspection of the data or calculated using noncompartmental methods with validated PK software (Phoenix WinNonlin, Version 6.3). Urine concentration data were used to determine renal excretion and drug recovery rates. The number of subjects was selected to allow sufficient evaluation of safety, tolerability, and PK and was consistent with phase 1 standards of practice ([44]).

[4] = Multiple-ascending-dose phase 1 study: plasma and urine pharmacokinetics; conditions: for Vd / clearance / half-life / level at 144 h: plasma; for Vd / clearance / half-life / level at 144 h / dose excreted: iv; for level at 144 h: read-out: trough concentration on day 7 (144 h postdose); for dose excreted: urine
Description: as §1, §4, §5

[5] = human, single 50 mg IV infusion over 1 h
[6] = human, single 100 mg IV infusion over 1 h
[7] = human, single 200 mg IV infusion over 1 h
[8] = human, single 400 mg IV infusion over 1 h
[9] = human, 100 mg, 100 mg IV once weekly x2, day 1, sampling interval 144 h, arithmetic mean
[10] = human, 100 mg, 100 mg IV once weekly x2, day 8, sampling interval 480 h, arithmetic mean
[11] = human, 200 mg, 200 mg IV once weekly x2, day 1, sampling interval 144 h, arithmetic mean
[12] = human, 200 mg, 200 mg IV once weekly x2, day 8, sampling interval 480 h, arithmetic mean
[13] = human, 400 mg, 400 mg IV once weekly x3, day 1, sampling interval 144 h, arithmetic mean
[14] = human, 400 mg, 400 mg IV once weekly x3, day 15, sampling interval 480 h, arithmetic mean
[15] = single and multiple doses, all dose levels

CCCCCOc1ccc(-c2ccc(-c3ccc(C(=O)N[C@H]4C[C@@H](O)[C@@H](OCC[N+](C)(C)C)NC(=O)[C@@H]5[C@@H](O)[C@@H](C)CN5C(=O)[C@H]([C@@H](C)O)NC(=O)[C@H]([C@H](O)[C@@H](O)c5ccc(O)cc5)NC(=O)[C@@H]5C[C@@H](O)CN5C(=O)[C@H]([C@@H](C)O)NC4=O)cc3)cc2)cc1 [CD101] ({pTerphenylCO(4''-OnC5H11)}-[Orn(4R-OH,5R-OCH2CH2NMe3+)]T[Hyp][hTyr(3S-OH,4S-OH)]T[Pro(3S-OH,4S-Me)]; lactam 1-C)
subjects with mild, transient infusion reactions (flushing, feeling hot, nausea, chest tightness) (healthy adults [1]; all CD101 cohorts, primarily cohort 3, most common with third dose): Four | subjects with TEAEs related to study drug (healthy adults [1]; cohort 1 (100 mg x2 weeks)): 1 subject | subjects with TEAEs related to study drug (healthy adults [1]; cohort 2 (200 mg x2 weeks)): 1 subject | subjects with moderate TEAEs (healthy adults [1]; cohort 2 (200 mg x2 weeks), arthropod bite and pruritus): 1 subject | subjects with TEAEs related to study drug (healthy adults [1]; cohort 3 (400 mg x3 weeks)): 4 subjects | subjects with gastrointestinal disorders (system organ class) (healthy adults [1]; cohort 3 (400 mg x3 weeks)): 4 [67%] subjects [%] | subjects with vascular disorders (system organ class) (healthy adults [1]; cohort 3 (400 mg x3 weeks)): 3 [50%] subjects [%] | subjects with moderate TEAEs (healthy adults [1]; cohort 3 (400 mg x3 weeks), constipation and myalgia): 2 subjects | SAEs, severe AEs, withdrawals due to an AE, deaths (healthy adults [2]; both studies, all dose levels): no serious adverse events (SAEs), severe adverse events (AEs), withdrawals due to an AE, or deaths | laboratory abnormalities, vital signs, ECG (healthy adults [2]; both studies, all dose levels): no clinically meaningful trends in postbaseline laboratory abnormalities | overall safety and tolerability (healthy adults [2]; both studies, single dose up to 400 mg, multiple doses up to 400 mg once weekly for 3 weeks): safe and well tolerated at all dose levels tested | subjects with gastrointestinal disorders (system organ class) (healthy adults [2]; cohort 1 (single 50 mg)): 2 [33%] subjects [%] | subjects with musculoskeletal and connective tissue disorders (healthy adults [2]; cohort 1 (single 50 mg)): 2 [33%] subjects [%] | subjects with gastrointestinal disorders (system organ class) (healthy adults [2]; cohort 3 (single 200 mg)): 2 [33%] subjects [%] | subjects with general disorders and administration site conditions (healthy adults [2]; cohort 3 (single 200 mg)): 2 [33%] subjects [%] | subjects with musculoskeletal and connective tissue disorders (healthy adults [2]; cohort 3 (single 200 mg)): 2 subjects | subjects with moderate TEAEs (healthy adults [2]; cohort 3 (single 200 mg), ear pain): 1 subject | subjects with musculoskeletal and connective tissue disorders (healthy adults [2]; cohort 4 (single 400 mg)): 1 subject | subjects with moderate TEAEs (healthy adults [2]; cohort 4 (single 400 mg), headache): 1 subject | Vd ([3]; human, 50 mg, single 50 mg IV infusion over 1 h, read-out: Vss (volume of distribution at steady state)): 36 L | Vd ([3]; human, 50 mg, single 50 mg IV infusion over 1 h, read-out: Vz (apparent volume of distribution during terminal phase)): 43.2 L | Vd ([3]; human, 100 mg, single 100 mg IV infusion over 1 h, read-out: Vss (volume of distribution at steady state)): 42.9 L | Vd ([3]; human, 100 mg, single 100 mg IV infusion over 1 h, read-out: Vz (apparent volume of distribution during terminal phase)): 50.6 L | Vd ([3]; human, 200 mg, single 200 mg IV infusion over 1 h, read-out: Vss (volume of distribution at steady state)): 34.4 L | Vd ([3]; human, 200 mg, single 200 mg IV infusion over 1 h, read-out: Vz (apparent volume of distribution during terminal phase)): 39.7 L | Vd ([3]; human, 400 mg, single 400 mg IV infusion over 1 h, read-out: Vss (volume of distribution at steady state)): 35.9 L | Vd ([3]; human, 400 mg, single 400 mg IV infusion over 1 h, read-out: Vz (apparent volume of distribution during terminal phase)): 41.6 L | clearance [3, 5]: 3.75 mL/min | half-life [3, 5]: 133 h | Cmax ([3]; human, single 100 mg IV infusion over 1 h, read-out: Cmax): 4860 ng/mL | clearance [3, 6]: 4 mL/min | half-life [3, 6]: 146 h | clearance [3, 7]: 3.65 mL/min | half-life [3, 7]: 125 h | clearance [3, 8]: 3.77 mL/min | half-life [3, 8]: 129 h | Cmax ([3]; single 400 mg IV infusion over 1 h): 22700 ng/mL | mean half-life (t1/2) through the first week (up to day 7) of plasma sampling ([3]; single 50 to 400 mg IV doses): > 80 h | Vss ([4]; 100 mg IV once weekly x2, day 8, arithmetic mean): 29.3 L | cumulative amount excreted in urine ([4]; cohort 1 (100 mg x2), day 1): 52.0 µg | mean renal clearance ([4]; cohort 1 (100 mg x2), day 1): 0.1877 mL/h | cumulative amount excreted in urine ([4]; cohort 1 (100 mg x2), day 8): 151.4 µg | cumulative amount excreted in urine ([4]; cohort 2 (200 mg x2), day 1): 145.0 µg | cumulative amount excreted in urine ([4]; cohort 2 (200 mg x2), day 8): 400.7 µg | cumulative amount excreted in urine ([4]; cohort 3 (400 mg x3), day 1): 330.6 µg | cumulative amount excreted in urine ([4]; cohort 3 (400 mg x3), day 15): 987.5 µg | mean renal clearance ([4]; cohort 3 (400 mg x3), day 15): 0.5965 mL/h | cumulative amount excreted in urine, times higher than on day 1 ([4]; days 8 and 15 vs day 1): approximately 3 times | t1/2 ([4]; following the first dose): approximately 80 h | Vd ([4]; human, 100 mg, 100 mg IV once weekly x2, day 1, arithmetic mean, read-out: Vss): 28.8 L | Vd ([4]; human, 100 mg, 100 mg IV once weekly x2, day 1, arithmetic mean, read-out: Vz): 29.5 L | clearance [4, 9]: 4.3 mL/min | half-life [4, 9]: 79.1 h | Vd ([4]; human, 100 mg, 100 mg IV once weekly x2, day 8, arithmetic mean, read-out: Vz): 33.8 L | clearance [4, 10]: 2.48 mL/min | half-life [4, 10]: 158 h | Vd ([4]; human, 200 mg, 200 mg IV once weekly x2, day 1, arithmetic mean, read-out: Vss): 31.7 L | Vd ([4]; human, 200 mg, 200 mg IV once weekly x2, day 1, arithmetic mean, read-out: Vz): 32.8 L | clearance [4, 11]: 4.65 mL/min | half-life [4, 11]: 81.3 h | Vd ([4]; human, 200 mg, 200 mg IV once weekly x2, day 8, arithmetic mean, read-out: Vss): 28.5 L | Vd ([4]; human, 200 mg, 200 mg IV once weekly x2, day 8, arithmetic mean, read-out: Vz): 30.9 L | clearance [4, 12]: 2.58 mL/min | half-life [4, 12]: 140 h | Vd ([4]; human, 400 mg, 400 mg IV once weekly x3, day 1, arithmetic mean, read-out: Vss): 29.6 L | Vd ([4]; human, 400 mg, 400 mg IV once weekly x3, day 1, arithmetic mean, read-out: Vz): 31.2 L | clearance [4, 13]: 4.47 mL/min | half-life [4, 13]: 81 h | Vd ([4]; human, 400 mg, 400 mg IV once weekly x3, day 15, arithmetic mean, read-out: Vss): 25.4 L | Vd ([4]; human, 400 mg, 400 mg IV once weekly x3, day 15, arithmetic mean, read-out: Vz): 27.9 L | clearance [4, 14]: 2.1 mL/min | half-life [4, 14]: 152 h | level at 144 h ([4]; human, 400 mg, following the first dose): ~4000 ng/mL | level at 144 h ([4]; human, 400 mg, following the third (last) dose): ~7000 ng/mL | half-life ([4]; human, following the second or third dose): ~150 h | dose excreted ([4]; human, all dose levels, both studies, read-out: fraction of dose excreted): < 1% | dose excreted ([4]; human, LC-MS/MS, read-out: amount of CD101 excreted in urine): ≤ 0.26% | AUC(0-t) ([4]; human, 200 mg IV once weekly x2, day 1, plasma, arithmetic mean, read-out: AUC0–168): 570 µg·h/mL | Cmax ([4]; human, 400 mg IV once weekly x3, day 1, plasma, arithmetic mean): 22700 ng/mL | apparent clearance [4, 15]: < 0.28 L/h | half-life (t1/2) [4, 15]: > 80 h
